Drawing on ChEMBL document CHEMBL4842373, “C1'-Branched acyclic nucleoside phosphonates mimicking adenosine monophosphate: Potent inhibitors of Trypanosoma brucei adenine phosphoribosyltransferase” (Eur J Med Chem, 2021), this text covers Ki for 27 molecules.

pKi: −log10 of the molar value.

The assay can be described thus: Inhibition of Trypanosoma brucei adenine phosphoribosyltransferase expressed in Escherichia coli measured by spectrophotometric method.
For the molecule `CCOC(COCP(=O)(O)O)n1cnc2c(N)ncnc21` (configuration not stated), the negative-log Ki (pKi) was 5.40. For `Nc1ncnc2c1ncn2C(COCP(=O)(O)O)OCCO` (configuration not stated), the pKi is 5.21. Then `Nc1ncnc2c1ncn2[C@H](CO)COCP(=O)(O)O`, with 4.81.

Molecule `CC[C@H](COCP(=O)(O)O)n1cnc2c(N)ncnc21` showed a pKi of 5.50. To `Nc1ncnc2c1ncn2C(CCP(=O)(O)O)OCCO` (configuration not stated) belongs less than 4.52; to `C#CC(COCP(=O)(O)O)n1cnc2c(N)ncnc21` (configuration not stated), 4.57; to `CC(COCP(=O)(O)O)n1cnc2c(N)ncnc21` (configuration not stated), less than 4.52. Then `Nc1ncnc2c1ncn2C(CCOCP(=O)(O)O)OCCCO` (configuration not stated), with 5.49; and `CCC(COCP(=O)(O)O)n1cnc2c(N)ncnc21` (configuration not stated), with 4.93. To `Nc1ncnc2c1ncn2[C@H](COCc1ccccc1)COCP(=O)(O)O` belongs 4.41. `Nc1ncnc2c1ncn2[C@@H](COCc1ccccc1)COCP(=O)(O)O` showed a pKi of less than 4.52. To `COC(COCP(=O)(O)O)n1cnc2c(N)ncnc21` (configuration not stated) belongs 4.88; to `Nc1ncnc2c1ncn2[C@H](CCOCP(=O)(O)O)OCCO`, 4.43; to `Nc1ncnc2c1ncn2[C@@H](COCP(=O)(O)O)C1CC1`, 5.53. Then `Nc1ncnc2c1ncn2[C@@H](CCOCP(=O)(O)O)OCCO`, with 5.81; and `CC(C)[C@H](COCP(=O)(O)O)n1cnc2c(N)ncnc21`, with 6.24; and `Nc1ncnc2c1ncn2C(COCP(=O)(O)O)C1CC1` (configuration not stated), with 5.23. `Nc1ncnc2c1ncn2C(CCOCP(=O)(O)O)OCCO` (configuration not stated) showed a pKi of 5.31.

In turn, `Nc1ncnc2c1ncn2C(COCCP(=O)(O)O)OCCO` (configuration not stated) showed a negative-log Ki (pKi) of less than 4.52. To `CO[C@H](COCP(=O)(O)O)n1cnc2c(N)ncnc21` belongs 5.01; to `CCO[C@@H](COCP(=O)(O)O)n1cnc2c(N)ncnc21`, less than 4.52; to `Nc1ncnc2c1ncn2C(CO)COCP(=O)(O)O` (configuration not stated), 4.71.

With `C=CC(COCP(=O)(O)O)n1cnc2c(N)ncnc21` (configuration not stated), the negative logarithm of the Ki (pKi) was 4.79. This pKi and that of the molecule before are within 0.2 log units of each other.

With `Nc1ncnc2c1ncn2C(COCP(=O)(O)O)C(F)(F)F` (configuration not stated), the negative-log Ki (pKi) was less than 4.52. In turn, `CO[C@@H](COCP(=O)(O)O)n1cnc2c(N)ncnc21` showed a pKi of less than 4.52. Then `CC(C)[C@@H](COCP(=O)(O)O)n1cnc2c(N)ncnc21`, with 4.76. Then `CCO[C@H](COCP(=O)(O)O)n1cnc2c(N)ncnc21`, with 5.62.
